Source: patent US10487071B2, “Bis-triazole compounds with anti-biofilm and anti-corrosion properties” (Université de Toulon, priority 2015, dated 2019)

What was measured:
[1] = Gravimetry (weight loss), corrosion inhibition; settings: mild steel in 1N HCl
Experimental: The corrosion rates were determined by electrochemical impedance spectroscopy measurements and gravimetry.
Weight loss measurements were performed on 2.5×2.0×0.1 cm rectangular mild steel coupons. The mild steel coupons were immersed into non-de-aerated HCl 1N solution in absence and presence of different concentrations of compounds of general formula (I). After the elapsed time, the coupons were taken out, washed, dried and weighed accurately. Experiments were duplicated.
Weight loss experiments were done to confirm the corrosion inhibitive properties of AS164.
The inhibition efficiency, IE (%), was estimated from the weight loss experiments using the following equation:
[formula] wherein CR^o and CR are respectively the corrosion rate in the absence and presence of AS164.

[2] = test system: Pseudoalteromonas lipolytica (TC8); assay: Anti-adhesion test, strain TC8; assay type: cell-based; settings: Pseudoalteromonas lipolytica; for activity at 200 µM: 15 h, read-out: % of adhesion at 200 μM, TC8; for EC50: read-out: EC50 (effective concentration to inhibit 50% of the adhesion), TC8
Experimental: (§1) The anti-adhesion bioassays and toxicity tests are adapted from those disclosed in M. Camps, J.-F. Briand, L. Guentas-Dombrowsky, G. Culioli, A. Bazire and Y. Blache, Mar. Poll.
(§2) Bacterial strains were grown on Väätänen nine-salts solution (VNSS). When the stationary phase was reached, the bacterial suspension was centrifuged. Cells were then diluted in sterile artificial sea water (ASW) and introduced in microtiter plates (sterile black PS; Nunc, Fisher Scientific, France) with the tested compound (at eight concentrations in three replicates) in the presence of three controls: (i) non-specific staining control, (ii) adhesion control, and (iii) positive control. The maximum percentage of solvent (DMSO 2%) used to dilute the tested compound was also tested in triplicate as additional control. After incubation during an optimized adhesion time (moderately 15 h), non-adhered bacteria were eliminated and adhered cells were quantified after SYTO 61 (1 μM) staining. A percentage of inhibition was calculated per well. A sigmoid dose-response curve was obtained by plotting the percentage of inhibition as a function of the log of tested compound concentration, after mean (n=3) and standard deviation (SD) calculation per triplicate for each concentration. EC50 values were then calculated for each compound.

Shewanella sp. (TC11) = assay: Anti-adhesion test, strain TC11; assay type: cell-based; settings: for activity at 200 µM: 15 h, strain TC11, read-out: % of adhesion at 200 μM, TC11; for EC50: read-out: EC50 (effective concentration to inhibit 50% of the adhesion), strain TC11
Experimental: as §2
Shewanella sp. (TC11) was isolated in June 2010 in the Military Harbor of Toulon (Mediterranean Sea, France) as described in F. Brian-Jaisson, A. Ortalo-Magné, L. Guentas-Dombrowsky, F. Armougom, Y. Blache, M. Molmeret, Microb. Ecol., 2014, 68, 94-110.

[3] = test system: Pseudoalteromonas ulvae (TC14); assay: Anti-adhesion test, strain TC14; assay type: cell-based; settings: Pseudoalteromonas ulvae; for activity at 200 µM: 15 h; for EC50: read-out: EC50 (effective concentration to inhibit 50% of the adhesion)
Experimental: as §2
Pseudoalteromonas ulvae (TC14) was isolated in June 2010 in the Military Harbor of Toulon (Mediterranean Sea, France) as described in F. Brian-Jaisson, A. Ortalo-Magné, L. Guentas-Dombrowsky, F. Armougom, Y. Blache, M. Molmeret, Microb. Ecol., 2014, 68, 94-110.

Polaribacter sp. (TC5) = assay: Anti-adhesion test, strain TC5; assay type: cell-based; settings: for activity at 200 µM: 15 h; for EC50: read-out: EC50 (effective concentration to inhibit 50% of the adhesion)
Experimental: as §2
Polaribacter sp. (TC5) was isolated in June 2010 in the Military Harbor of Toulon (Mediterranean Sea, France) as described in F. Brian-Jaisson, A. Ortalo-Magné, L. Guentas-Dombrowsky, F. Armougom, Y. Blache, M. Molmeret, Microb. Ecol., 2014, 68, 94-110.

Paracoccus sp. (4M6) = assay: Anti-adhesion test, strain 4M6; assay type: cell-based; settings: Paracoccus; for activity at 200 µM: 15 h, read-out: % of adhesion at 200 μM, 4M6; for EC50: read-out: EC50 (effective concentration to inhibit 50% of the adhesion), 4M6
Experimental: as §1, §2

[4] = test system: marine bacterial strains (TC14, TC8, 4M6, TC5 and TC11); assay: Anti-adhesion test, summary over the strains; assay type: cell-based; settings: read-out: inhibition of the adhesion of at least two marine bacterial strains
Experimental: as §2
In examples 64 and 65, the following marine bacterial strains are used.

| Compound | IE % ([1]; 0.1 ppm) [%] | IE % ([1]; 0.3 ppm) [%] | IE % ([1]; 0.5 ppm) [%] | IE % ([1]; 2 ppm) [%] | IE % ([1]; 10 ppm) [%] | activity at 200 µM [2] [%] | EC50 [2] [µM] | activity at 200 µM (Shewanella sp. (TC11)) [%] | EC50 (Shewanella sp. (TC11)) [µM] | activity at 200 µM [3] [%] | EC50 [3] [µM] | activity at 200 µM (Polaribacter sp. (TC5)) [%] | EC50 (Polaribacter sp. (TC5)) [µM] | activity at 200 µM (Paracoccus sp. (4M6)) [%] | EC50 (Paracoccus sp. (4M6)) [µM] | inhibition at 200 µM [4] [%] |
| --- | --- | --- | --- | --- | --- | --- | --- | --- | --- | --- | --- | --- | --- | --- | --- | --- |
| CN(C)CCCOc1ccc(CCCn2cc(-c3ccc(-c4cn(CCCc5ccc(OCCCN(C)C)c(Br)c5)nn4)cc3)nn2)cc1Br [SA32, 3-(4-(3-(4-(4-(1-(3-(4-(3-(dimethylamino)propoxy)-3-bromophenyl)propyl)-1H-1,2,3-triazol-4-yl)phenyl)-1H-1,2,3-triazol-1-yl)propyl)-2-bromophenoxy)-N,N-dimethylpropan-1-amine] | 79.01 | 95.43 | 96.30 | 96.54 | 95.58 | 17.7 ± 11.1 | 109 ± 37.2 | 17.4 ± 2.9 | 61.1 ± 18.5 | 34.3 ± 2.6 | 115 ± 20.5 | 53.4 ± 13.8 | 114 ± 28.6 | 26.7 ± 5.6 | 3.1 ± 8.6 | – |
| Oc1ccc(CCn2cc(-c3ccc(-c4cn(CCc5ccc(O)c(Br)c5)nn4)cc3)nn2)cc1Br [NT23, 1,4 bis (1-(3-bromo-4-hydroxyphenethyl)-1H-1,2,3-triazol-4-yl) benzene] | – | – | – | – | – | 58.3 ± 8.7 | – | – | – | 31 ± 6.1 | 40.9 ± 11.4 | – | – | 31.8 ± 3.5 | 59.9 ± 7.7 | ≥ 65 |
| CN(C)CCCOc1ccc(CCn2cc(-c3ccc(-c4cn(CCc5ccc(OCCCN(C)C)cc5)nn4)cc3)nn2)cc1 [SA12, 3-(4-(2-(4-(4-(1-(4-(3-(dimethylamino)propoxy)phenethyl)-1H-1,2,3-triazol-4-yl)phenyl)-1H-1,2,3-triazol-1-yl)ethyl)phenoxy)-N,N-dimethylpropan-1-amine] | 39.30 | 69.97 | 94.65 | 96.89 | 95.73 | 30 ± 21.9 | 177 ± 80.1 | 41 ± 4.1 | 173 ± 22.4 | 42.4 ± 8.6 | 187 ± 16.5 | 66.2 ± 2.8 | – | 14.3 ± 7.3 | 73.2 ± 10.7 | – |
| CN(C)CCCOc1ccc(CCn2cc(-c3ccc(-c4cn(CCc5ccc(OCCCN(C)C)c(I)c5)nn4)cc3)nn2)cc1I [SA46, 3-(4-(2-(4-(4-(1-(4-(3-(dimethylamino)propoxy)-3-iodophenethyl)-1H-1,2,3-triazol-4-yl)phenyl)-1H-1,2,3-triazol-1-yl)ethyl)-2-iodophenoxy)-N,N-dimethylpropan-1-amine] | 82.23 | 90.47 | 94.51 | 96.05 | 94.96 | 17.4 ± 14.3 | 71.5 ± 4.1 | 5.8 ± 1.2 | 22.2 ± 13.6 | 30.2 ± 3.5 | 74.4 ± 8.3 | 22.4 ± 14.7 | 70.6 ± 8.9 | 26.6 ± 3.4 | 48.3 ± 48.9 | – |
| COc1ccc(Cn2cc(-c3ccc(-c4cn(Cc5ccc(OC)c(Br)c5)nn4)cc3)nn2)cc1Br [SA8, 1-(3-bromo-4-methoxybenzyl)-4-(4-(1-(3-bromo-4-methoxybenzyl)-1H-1,2,3-triazol-4-yl)phenyl)-1H-1,2,3-triazole] | – | – | – | – | – | 24.1 ± 2.6 | 159 ± 28.5 | 16.4 ± 8 | 122 ± 7.1 | 23.3 ± 3.8 | 99.5 ± 4.5 | 38.3 ± 0.1 | 152 ± 6.7 | 33.1 ± 4.4 | 163 ± 23.6 | – |
